Test results published in patent US20100113540A1, “Azole and Thiazole Derivatives and Their Use” (ARGENTA DISCOVERY LIMITED, priority 2005, published 2010).
Structures can show the parent of a compound that is named as a salt.

Biological target: T1, M3 muscarinic receptor (Homo sapiens, UniProt P20309)
T1 construct: purchased
Test: Muscarinic receptor radioligand binding assay ([3H]-NMS), M3
Settings: cell membranes expressing human M3 receptor
Protocol: The inhibitory effects of compounds of the present invention at the M3 muscarinic receptor and (in the case of Example 77) the β2 adrenergic receptor, were determined by the following binding assays:
Radioligand binding studies utilising [^3H]-N-methyl scopolamine ([^3H]-NMS) and commercially available cell membranes expressing the human muscarinic receptors (M2 and M3) were used to assess the affinity of muscarinic antagonists for M2 and M3 receptors. Membranes in TRIS buffer were incubated in 96-well plates with [^3H]-NMS and M3 antagonist at various concentrations for 3 hours. Membranes and bound radioligand were then harvested by filtration and allowed to dry overnight. Scintillation fluid was then added and the bound radioligand counted using a Can berra Packard Topcount scintillation counter

T1 sequence (P20309 whole entry): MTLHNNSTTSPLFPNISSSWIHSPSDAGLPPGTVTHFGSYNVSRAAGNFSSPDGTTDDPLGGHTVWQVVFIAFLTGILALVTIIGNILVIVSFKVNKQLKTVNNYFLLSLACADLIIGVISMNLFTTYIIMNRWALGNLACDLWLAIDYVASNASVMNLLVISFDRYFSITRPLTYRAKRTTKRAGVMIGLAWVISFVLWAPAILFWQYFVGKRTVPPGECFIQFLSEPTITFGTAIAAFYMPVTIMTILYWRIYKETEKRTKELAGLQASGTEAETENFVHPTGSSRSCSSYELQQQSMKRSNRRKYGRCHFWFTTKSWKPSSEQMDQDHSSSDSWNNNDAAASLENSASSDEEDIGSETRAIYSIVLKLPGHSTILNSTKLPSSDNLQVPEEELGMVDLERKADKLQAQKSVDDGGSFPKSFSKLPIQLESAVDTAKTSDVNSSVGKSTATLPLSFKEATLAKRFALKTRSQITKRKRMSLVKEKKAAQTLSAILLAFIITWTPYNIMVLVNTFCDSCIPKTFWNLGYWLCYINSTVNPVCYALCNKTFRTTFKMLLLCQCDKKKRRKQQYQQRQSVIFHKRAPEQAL

SMILES	Ki [nM]
COCCCCCCCC[N+](C)(C)Cc1cnc([C@](O)(c2ccccc2)C2CCCCC2)o1 [Example 42, [2-((R)-Cyclohexyl-hydroxy-phenyl-methyl)-oxazol-5-ylmethyl]-(8-methoxy-octyl)-dimethyl-ammonium formate]	1 to 10
CN(CCCOc1ccccc1)Cc1cnc(C(O)(c2ccccc2)C2CCCCC2)o1 (stereo not drawn) [Example 13, Cyclohexyl-(5-{[methyl-(3-phenoxy-propyl)-amino]-methyl}-oxazol-2-yl)-phenyl-methanol]	1 to 10
Cc1ccc(OCCC[N+](C)(C)Cc2cnc([C@](O)(c3ccccc3)C3CCCCC3)o2)cc1 [Example 55, [2-((R)-Cyclohexyl-hydroxy-phenyl-methyl)-oxazol-5-ylmethyl]-dimethyl-(3-p-tolyloxy-propyl)-ammonium bromide]	< 1
C[N+]1(Cc2cnc(C(O)(c3ccccc3)c3ccccc3)o2)CCC(Oc2ccccc2)CC1 (stereo not drawn) [Example 58, 1-[2-(Hydroxy-diphenyl-methyl)-oxazol-5-ylmethyl]-1-methyl-4-phenoxy-piperidinium bromide]	1 to 10
C[N+](C)(CCCOc1ccc(S(N)(=O)=O)cc1)Cc1cnc([C@](O)(c2ccccc2)C2CCCCC2)o1 [Example 54, [2-((R)-Cyclohexyl-hydroxy-phenyl-methyl)-oxazol-5-ylmethyl]-dimethyl-[3-(4-sulfamoyl-phenoxy)-propyl]-ammonium bromide]	1 to 10
CN(C)CCc1cnc(C(O)(c2ccccc2)c2ccccc2)o1 [Example 71, [5-(2-Dimethylamino-ethyl)-oxazol-2-yl]-diphenyl-methanol]	1 to 10
C[N+](C)(CCCOc1ccccc1)Cc1cnc([C@](O)(c2ccccc2)C2CCCCC2)o1 [Example 8, [2-((R)-Cyclohexyl-hydroxy-phenyl-methyl)-oxazol-5-ylmethyl]-dimethyl-(3-phenoxy-propyl)-ammonium bromide]	< 1
C[N+](C)(CC(=O)Nc1ccon1)Cc1cnc([C@](O)(c2ccccc2)C2CCCCC2)o1 [Example 52, [2-((R)-Cyclohexyl-hydroxy-phenyl-methyl)-oxazol-5-ylmethyl]-(isoxazol-3-ylcarbamoylmethyl)-dimethyl-ammonium bromide]	1 to 10
CC(C)=CCC[N+](C)(C)Cc1cnc([C@](O)(c2ccccc2)C2CCCCC2)o1 [Example 33, [2-((R)-Cyclohexyl-hydroxy-phenyl-methyl)-oxazol-5-ylmethyl]-dimethyl-(4-methyl-pent-3-enyl)-ammonium bromide]	< 1
COC(=O)c1ccc(OCCC[N+](C)(C)Cc2cnc([C@](O)(c3ccccc3)C3CCCCC3)o2)cc1 [Example 53, [2-((R)-Cyclohexyl-hydroxy-phenyl-methyl)-oxazol-5-ylmethyl]-[3-(4-methoxycarbonyl-phenoxy)-propyl]-dimethyl-ammonium bromide]	1 to 10
CN(C)Cc1cnc(C(O)(c2ccccc2)c2ccccc2)o1 [Example 1, (5-Dimethylaminomethyl-oxazol-2-yl)-diphenyv-methanol]	1 to 10
O[C@](c1ccccc1)(c1ncc(C[N+]2(CCCOc3ccccc3)CCCC2)o1)C1CCCCC1 [Example 40, 1-[2-(Cyclohexyl-hydroxy-phenyl-methyl)-oxazol-5-ylmethyl]-1-(3-phenoxy-propyl)-pyrrolidinium bromide]	< 1
CN(C)Cc1cnc(C(C)(c2ccccc2)c2ccccc2)o1 [Example 30, [2-(1,1-Diphenyl-ethyl)-oxazol-5-ylmethyl]-dimethyl-amine]	> 10
C[N+](C)(CCCc1ccccc1)Cc1cnc([C@](O)(c2ccccc2)C2CCCCC2)o1 [Example 48, [2-((R)-cyclohexyl-hydroxy-phenyl-methyl)-oxazol-5-ylmethyl]-dimethyl-(3-phenyl-propyl)-ammonium formate]	< 1
C[N+](C)(CCCOc1ccccc1)Cc1cnc([C@](O)(c2ccccc2)C2CCCC2)o1 [Example 37, [2-(Cyclopentyl-hydroxy-phenyl-methyl)-oxazol-5-ylmethyl]-dimethyl-(3-phenoxy-propyl)-ammonium bromide]	< 1
C[N+](C)(CCCOc1ccccc1)CCc1cnc(C(O)(c2ccccc2)c2ccccc2)o1 [Example 72, {2-[2-(Hydroxy-diphenyl-methyl)-oxazol-5-yl]-ethyl}-dimethyl-(3-phenoxy-propyl)-ammonium bromide]	< 1
C[N+](C)(Cc1ccccc1)Cc1cnc([C@](O)(c2ccccc2)C2CCCC2)o1 [Example 59, Benzyl-[2-(cyclopentyl-hydroxy-phenyl-methyl)-oxazol-5-ylmethyl]-dimethyl-ammonium bromide]	1 to 10
C[N+](C)(CCCOc1ccc(Cl)cc1)Cc1cnc([C@](O)(c2ccccc2)C2CCCCC2)o1 [Example 56, [3-(4-Chloro-phenoxy)-propyl]-[2-((R)-cyclohexyl-hydroxy-phenyl-methyl)-oxazol-5-ylmethyl]-dimethyl-ammonium bromide]	< 1

SMILES	Ki [nM]
C[N+](C)(CCOCc1ccccc1)Cc1cnc([C@](O)(c2ccccc2)C2CCCCC2)o1 [Example 44, (2-Benzyloxy-ethyl)-[2-((R)-cyclohexyl-hydroxy-phenyl-methyl)-oxazol-5-ylmethyl]-dimethyl-ammonium bromide]	< 1
C[N+](C)(CCc1ccc2c(c1)CCO2)Cc1cnc([C@](O)(c2ccccc2)C2CCCCC2)o1 [Example 34, [2-((R)-Cyclohexyl-hydroxy-phenyl-methyl)-oxazol-5-ylmethyl]-[2-(2,3-dihydro-benzofuraan-5-yl)-ethyl]-dimethyl-ammonium bromide]	< 1
C[N+](C)(CCOc1ccccc1)Cc1cnc([C@](O)(c2ccccc2)C2CCCCC2)o1 [Example 49, [2-((R)-cyclohexyl-hydroxy-phenyl-methyl)-oxazol-5-ylmethyl]-dimethyl-(2-phenoxy-ethyl)-ammonium formate]	< 1
C[N+](C)(Cc1ccccc1)Cc1cnc([C@@](O)(c2ccccc2)C2CCCC2)o1 (stereo in doubt) [Example 60, Benzyl-[2-(cyclopentyl-hydroxy-phenyl-methyl)-oxazol-5-ylmethyl]-dimethyl-ammonium bromide]	> 10
CN(C)Cc1cnc([C@](O)(c2ccccc2)C2CCCCC2)o1 (single isomer, unassigned) [Example 6]	< 1
O[C@](c1ccccc1)(c1ncc(C[N+]2(CCCOc3ccccc3)CCCCC2)o1)C1CCCCC1 [Example 38, 1-[2-(Cyclohexyl-hydroxy-phenyl-methyl)-oxazol-5-ylmethyl]-1-(3-phenoxy-propyl)-piperidinium bromide]	1 to 10
C[N+](C)(CCCOc1ccccc1)Cc1cnc(C(c2ccccc2)c2ccccc2)o1 [Example 74, (2-Benzhydryl-oxazol-5-ylmeth-dimethyl-(3-phenoxy-propyl)-ammonium bromide]	> 10
CN(C)Cc1cnc(C(c2ccccc2)c2ccccc2)o1 [Example 73, (2-Benzhydryl-oxazol-5-ylmethyl)-dimethyl-amine]	> 10
CNCc1ccc(CC[N+](C)(C)Cc2cnc([C@](O)(c3ccccc3)C3CCCCC3)o2)cc1 [Example 62, [2-((R)-cyclohexyl-hydroxy-phenyl-methyl)-oxazol-5-ylmethyl]-dimethyl-[2-(4-methylaminomethyl-phenyl)-ethyl]-ammonium methanesulfonate hydrochloride]	< 1
CN(C)CCc1cnc(C(O)(c2ccccc2)C2CCCCC2)o1 (single isomer, unassigned) [Example 66]	1 to 10
CN(Cc1ccccc1)Cc1cnc([C@@](O)(c2ccccc2)C2CCCC2)o1 (single isomer, unassigned) [Example 29, {5-[(Benzyl-methyl-amino)-methyl]-oxazol-2-yl}-cyclopentyl-phenyl-methanol]	> 10
C[N+](C)(CCCOc1ccc(C(N)=O)cc1)Cc1cnc([C@](O)(c2ccccc2)C2CCCCC2)o1 [Example 51, [3-(4-Carbamoyl-phenoxy)-propyl]-[2-((R)-cyclohexyl-hydroxy-phenyl-methyl)-oxazol-5-ylmethyl]-dimethyl-ammonium bromide]	1 to 10
CN(C)Cc1cnc([C@@](O)(c2ccccc2)C2CCCCC2)o1 (single isomer, unassigned) [Example 5]	> 10
CN(Cc1ccccc1)Cc1cnc([C@](O)(c2ccccc2)C2CCCC2)o1 (single isomer, unassigned) [Example 28, {5-[(Benzyl-methyl-amino)-methyl]-oxazol-2-yl}-cyclopentyl-phenyl-methanol]	> 10
C[N+](C)(CCCCc1ccccc1)Cc1cnc([C@](O)(c2ccccc2)C2CCCCC2)o1 [Example 45, [2-((R)-Cyclohexyl-hydroxy-phenyl-methyl)-oxazol-5-ylmethyl]-dimethyl-(4-phenyl-butyl)-ammonium bromide]	< 1
C[N+](C)(CCCOc1ccc(F)cc1)Cc1cnc([C@](O)(c2ccccc2)C2CCCCC2)o1 [Example 46, [2-((R)-Cyclohexyl-hydroxy-phenyl-methyl)-oxazol-5-ylmethyl]-[3-(4-fluoro-phenoxy)-propyl]-dimethyl-ammonium bromide]	< 1
COC(c1ccccc1)(c1ccccc1)c1ncc(C[N+](C)(C)CCCOc2ccccc2)o1 [Example 76, [2-(Methoxy-diphenyl-methyl)-oxazol-5-ylmethyl]-dimethyl-(3-phenoxy-propyl)-ammonium bromide]	> 10
C[N+](C)(CCCOc1ccccc1)CCc1cnc(C(O)(c2ccccc2)C2CCCCC2)o1 (stereo not drawn) [Example 65, {2-[2-(Cyclohexyl-hydroxy-phenyl-methyl)-oxazol-5-yl]-ethyl}-dimethyl-(3-phenoxy-propyl)-ammonium bromide]	< 1
